Measurements from US7169789B2 (Kirin Beer Kabushiki Kaisha, priority 1999, dated 2007).

Tests used:
[1] = tested on: A375 human melanoma cells; test: Karyomorphosis test; format: cell-based; details: test compound 10 μM and 1 μM, 48 hr, nuclei stained with propidium iodide
Procedure: A375 human melanoma cells (2×10^4) (obtained from Japanese Foundation for Cancer Research) were incolulated on a culture slide (manufactured by Falcon) and were cultured at 37° C. After the elapse of 5 hr from the initiation of the cultivation, the test compound was added to 10 μM and 1 μM, and the cultivation was continued for additional 48 hr. After the fixation of cells, 50 μg/ml propidium iodide solution containing ribonuclease (200 μg/ml) was added to stain nuclei. The stained nuclei were observed under a fluorescent microscope to analyze the nuclei for abnormality of karyomorphosis.

[2] = tested on: activation of MAPK within vascular endothelial cells induced by VEGF stimulation; test: Inhibitory activity against activation of MAPK within vascular endothelial cells induced by VEGF stimulation; format: cell-based; details: human funicular venous vascular endothelial cells, VEGF 50 ng/ml, phosphorylated MAPK by immunoblotting
Procedure: Measurement of Inhibitory Activity Against Activation of MAPK Within Vascular Endothelial Cells Induced by VEGF Stimulation
Human funicular venous vascular endothelial cells (purchased from Chronetics) were cultured in an EGM-2 medium (purchased from Chronetics) within an incubator containing 5% carbon dioxide until 50 to 70% confluent, and the culture was inoculated into wells, containing the same medium, in a 96-well flat-bottom plate in an amount of 1.5×10^5 per well. After cultivation at 37° C. overnight, the medium was replaced by an EBM-2 medium containing 0.5% fetal calf serum (purchased from Chronetics), followed by cultivation for 24 hr. A solution of the test compound in dimethyl sulfoxide was added to each well, and the cultivation was continued at 37° C. for additional one hr. A human recombinant vascular endothelial growth factor (hereinafter abbreviated to “VEGF”) was added to a final concentration of 50 ng/ml, and the stimulation of cells was carried out at 37° C. for 8 min. The medium was removed, the cells were washed with phosphate buffered saline (pH 7.4), and 10 μl of a solubilization buffer (Tris buffered saline (pH 7.4) containing 1% Triton X100, 2 mM sodium orthovanadylate, and 1 mM disodium ethylenediaminetetraacetate) was then added thereto. The mixture was shaken at 4° C. for one hr to solubilize the cells. An equal amount of Tris buffered saline containing 1% sodium laurylsulfate was added to and thoroughly mixed with the solution. This solution (2 μl) was adsorbed on a PVDF filter by dot blotting, and this filter was subjected to immunoblotting with anti-tyrosine phosphorylated MAPK antibody (purchased from Daiichi Pure Chemicals).
The level of phosphorylated MAPK was quantitatively determined with a densitometer, and the percentage phosphorylated MAPK in the presence of the test compound was determined by presuming the level of phosphorylated MAPK with the addition of VEGF in the absence of the test compound to be 100% and the level of phosphorylated MAPK in the absence of the test compound and VEGF to be 0%. The test compound concentration (IC50) necessary for inhibiting 50% of the activation of MAPK was calculated based on the percentage of phosphorylated MAPK.

Row | SMILES | Change in morphosis [1] | IC50 [2] [nM] | IC50 ([2]; Endothelial cell) [nM]
1 | COc1cc2nccc(Oc3ccc(NC(=O)Nc4ccc(C)cn4)c(Cl)c3)c2cc1OC [Example 20, N-{2-Chloro-4-[(6,7-dimethoxy-4-guinolyl)oxy]phenyl}-N′-(5-methyl-2-pyridyl)urea] | (−) (the change in karyomorphosis of cells did not take place at 10 μM) | 8.5 | 
2 | COc1cc2nccc(Oc3ccc(NC(=O)Nc4cccc(C)n4)c(Cl)c3)c2cc1OC [Example 21, N-{2-Chloro-4-[(6,7-dimethoxy-4-quinolyl)oxy]phenyl}-N′-(6-methyl-2-pyridyl)urea] | (−) (the change in karyomorphosis of cells did not take place at 10 μM) |  | 3.4
3 | COc1ccc(NC(=O)Nc2ccc(Oc3ccnc4cc(OC)c(OC)cc34)cc2Cl)cc1.Cl [Example 22, N-{2-Chloro-4-[(6,7-dimethoxy-4-quinolyl)oxy]phenyl}-N′-(4-methoxyphenyl)urea hydrochloride] | (−) (the change in karyomorphosis of cells did not take place at 10 μM) |  | 0.4
4 | COc1cc2nccc(Oc3ccc(NC(=O)Nc4cccc(F)c4OC)c(C)c3C)c2cc1OC [Example 26, N-{4-[(6,7-Dimethoxy-4-guinolyl)oxy]-2,3-dimethylphenyl}-N′-(3-fluoro-2-methoxyphenyl)urea] | (−) (the change in karyomorphosis of cells did not take place at 10 μM) | 5.3 | 
5 | COc1ccccc1NC(=O)Nc1ccc(Oc2ccnc3cc(OC)c(OC)cc23)c(C)c1C [Example 30, N-{4-[(6,7-Dimethoxy-4-guinolyl)oxy]-2,3-dimethylphenyl}-N′-(2-methoxyphenyl)urea] | (−) (the change in karyomorphosis of cells did not take place at 10 μM) | 1.7 | 
6 | COc1cc2nccc(Oc3ccc(NC(=O)Nc4ccccc4C)c(C)c3C)c2cc1OC [Example 31, N-{4-[(6,7-Dimethoxy-4-guinolyl)oxy]-2,3-dimethylphenyl}-N′-(2-methylphenyl)urea] | (−) (the change in karyomorphosis of cells did not take place at 10 μM) | 2.5 | 
7 | COc1cc2nccc(Oc3ccc(NC(=O)Nc4ccc(Cl)cc4C)c(C)c3C)c2cc1OC [Example 32, N-(4-Chloro-2-methylphenyl)-N′-{4-[(6,7-dimethoxy-4-guinolyl)oxy]-2,3-dimethylphenyl}urea] | (−) (the change in karyomorphosis of cells did not take place at 10 μM) | 7.3 | 
8 | COc1cc2nccc(Oc3ccc(NC(=O)Nc4ccccn4)c(C)c3C)c2cc1OC [Example 33, N-{4-[(6,7-Dimethoxy-4-guinolyl)oxy]-2,3-dimethylphenyl}-N′-(2-pyridyl)urea] | (−) (the change in karyomorphosis of cells did not take place at 10 μM) | 3.5 | 
9 | COc1cc2nccc(Oc3ccc(NC(=O)Nc4ccc(C)cn4)c(C)c3C)c2cc1OC [Example 34, N-{4-[(6,7-Dimethoxy-4-guinolyl)oxy]-2,3-dimethylphenyl}-N′-(5-methyl-2-pyridyl)urea] | (−) (the change in karyomorphosis of cells did not take place at 10 μM) | 4.2 | 
10 | COc1cc2nccc(Oc3ccc(NC(=O)Nc4cccc(C)n4)c(C)c3C)c2cc1OC [Example 35, N-{4-[(6,7-Dimethoxy-4-quinolyl)oxy]-2,3-dimethylphenyl}-N′-(6-methyl-2-pyridyl)urea] | (−) (the change in karyomorphosis of cells did not take place at 10 μM) |  | 3.7
11 | COc1ccc(NC(=O)Nc2ccc(Oc3ccnc4cc(OC)c(OC)cc34)c(C)c2C)cc1 [Example 36, N-{4-[(6,7-Dimethoxy-4-guinolyl)oxy]-2,3-dimethylphenyl}-N′-(4-methoxyphenyl)urea] | (−) (the change in karyomorphosis of cells did not take place at 10 μM) | 3.3 | 
12 | COc1cc2nccc(Oc3cc(C)c(NC(=O)Nc4ccc(F)cc4C)cc3C)c2cc1OC [Example 40, N-{4-[(6,7-Dimethoxy-4-quinolyl)oxy]-2,5-dimethylphenyl}-N′-(4-fluoro-2-methylphenyl)urea] | (−) (the change in karyomorphosis of cells did not take place at 10 μM) |  | 12
13 | COc1cc2nccc(Oc3cc(C)c(NC(=O)Nc4cccc(F)c4OC)cc3C)c2cc1OC [Example 41, N-{4-[(6,7-Dimethoxy-4-quinolyl)oxy]-2,5-dimethylphenyl}-N′-(3-fluoro-2-methoxyphenyl)urea] | (−) (the change in karyomorphosis of cells did not take place at 10 μM) |  | 4.9
14 | COc1cc2nccc(Oc3cc(C)c(NC(=O)Nc4ccccc4C)cc3C)c2cc1OC [Example 42, N-{4-[(6,7-Dimethoxy-4-guinolyl)oxy]-2,5-dimethylphenyl}-N′-(2-methylphenyl)urea] | (−) (the change in karyomorphosis of cells did not take place at 10 μM) | 5.9 | 
15 | COc1ccccc1NC(=O)Nc1cc(C)c(Oc2ccnc3cc(OC)c(OC)cc23)cc1C [Example 43, N-{4-[(6,7-Dimethoxy-4-quinolyl)oxy]-2,5-dimethylphenyl}-N′-(2-methoxyphenyl)urea] | (−) (the change in karyomorphosis of cells did not take place at 10 μM) |  | 3.8
16 | COc1ccc(NC(=O)Nc2cc(C)c(Oc3ccnc4cc(OC)c(OC)cc34)cc2C)c(OC)n1 [Example 45, N-(2,6-Dimethoxy-3-pyridyl)-N′-{4-[(6,7-dimethoxy-4-quinolyl)oxy]-2,5-dimethylphenyl}urea] | (−) (the change in karyomorphosis of cells did not take place at 10 μM) |  | 2
17 | COc1ccc(NC(=O)Nc2cc(C)c(Oc3ccnc4cc(OC)c(OC)cc34)cc2C)cc1 [Example 46, N-{4-[(6,7-Dimethoxy-4-quinolyl)oxy]-2,5-dimethylphenyl}-N′-(4-methoxyphenyl)urea] | (−) (the change in karyomorphosis of cells did not take place at 10 μM) |  | 4.3
18 | CCCNC(=O)Nc1ccc(Oc2ccnc3cc(OC)c(OC)cc23)cc1[N+](=O)[O-] [Example 47, N-{4-[(6,7-Dimethoxy-4-guinolyl)oxy]-2-nitrophenyl}-N′-propylurea] | (−) (the change in karyomorphosis of cells did not take place at 10 μM) | 4 | 
19 | COc1cc2nccc(Oc3c(Cl)cc(NC(=O)Nc4ccc(F)cc4F)cc3Cl)c2cc1OC [Example 49, N-{3,5-Dichloro-4-[(6,7-dimethoxy-4-quinolyl)oxy]phenyl}-N′-(2,4-difluorophenyl)urea] | (−) (the change in karyomorphosis of cells did not take place at 10 μM) |  | 4.3
20 | COc1ccccc1NC(=O)Nc1ccc(Oc2ccnc3cc(OCc4ccccc4)c(OC)cc23)c(C)c1C [Example 60, N-(4-{[7-(Benzyloxy)-6-methoxy-4-quinolyl]oxy}-2,3-dimethylphenyl)-N′-(2-methoxyphenyl)-urea] | (−) (the change in karyomorphosis of cells did not take place at 10 μM) |  | 
21 | COc1cc2ncnc(Oc3ccc(NC(=O)Nc4ccc(F)cc4F)c(Cl)c3)c2cc1OC [Example 61, N-{2-Chloro-4-[(6,7-dimethoxy-4-quinazolinyl)oxy]phenyl}-N′-(2,4-difluorophenyl)urea] | (−) (the change in karyomorphosis of cells did not take place at 10 μM) |  | 
